Experiments:
Assay in all cases: relative viability (nuclei count vs DMSO), 5 days (fraction); higher = more cells survive
[1] = system: NCI-H358
In short: (§1)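 Relative viability divides the nuclei count in treated wells by that in vehicle wells. Lung cancer cell lines were seeded in 1536-well plates, dosed by pin tool the next day, and fixed and stained after 5 days in one step with final 0.05% Triton X-100, 1% formaldehyde and 1 ug/ml Hoechst. Dosing was a single drug or a fixed anchor-drug dose plus five library-drug doses (not always all listed) in √10 steps, and values are medians of duplicate plates imaged at 4×.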

[2] = system: EPLC-272H
In short: as §1

[3] = system: A-427
In short: as §1

[4] = system: NCI-H1915
In short: as §1

[5] = system: EKVX
In short: as §1

[6] = system: NCI-H2023
In short: as §1

[7] = system: NCI-H1734
In short: as §1

[8] = system: COR-L23
In short: as §1

[9] = system: NCI-H1395
In short: as §1

[10] = system: NCI-H3122
In short: as §1

[11] = system: NCI-H650
In short: as §1

[12] = system: NCI-H2087
In short: as §1

[13] = system: HCC-78
In short: as §1

[14] = system: HOP-62
In short: as §1

[15] = system: ChaGo-K-1
In short: as §1

[16] = system: NCI-H661
In short: as §1

[17] = system: HCC-44
In short: as §1

[18] = system: SK-MES-1
In short: as §1

[19] = system: NCI-H1650
In short: as §1

[20] = system: NCI-H838
In short: as §1

[21] = system: LOU-NH91
In short: as §1

[22] = system: NCI-H596
In short: as §1

[23] = system: HCC-366
In short: as §1

SMILES: Cc1cnc(-c2cnc(NCCNc3ccc(C#N)cn3)nc2-c2ccc(Cl)cc2Cl)[nH]1 + CC(=O)Nc1cccc(-n2c(=O)n(C3CC3)c(=O)c3c(Nc4ccc(I)cc4F)n(C)c(=O)c(C)c32)c1 [Trametinib] (partner 0.02 µM)
- relative viability ([1]; first compound 0.08 µM): 0.147
- relative viability ([1]; first compound 0.253 µM): 0.143
- relative viability ([1]; first compound 0.8 µM): 0.136
- relative viability ([1]; first compound 2.53 µM): 0.13
- relative viability ([2]; first compound 0.08 µM): 0.26
- relative viability ([2]; first compound 0.253 µM): 0.298
- relative viability ([2]; first compound 0.8 µM): 0.314
- relative viability ([2]; first compound 2.53 µM): 0.296
- relative viability ([3]; first compound 0.08 µM): 0.814
- relative viability ([3]; first compound 0.253 µM): 0.792
- relative viability ([3]; first compound 0.8 µM): 0.827
- relative viability ([3]; first compound 2.53 µM): 0.837
- relative viability ([4]; first compound 0.08 µM): 0.308
- relative viability ([4]; first compound 0.8 µM): 0.29
- relative viability ([4]; first compound 2.53 µM): 0.299
- relative viability ([5]; first compound 0.08 µM): 0.391
- relative viability ([5]; first compound 0.253 µM): 0.328
- relative viability ([5]; first compound 0.8 µM): 0.256
- relative viability ([5]; first compound 2.53 µM): 0.358
- relative viability ([6]; first compound 0.08 µM): 0.647
- relative viability ([6]; first compound 0.253 µM): 0.537
- relative viability ([6]; first compound 0.8 µM): 0.712
- relative viability ([6]; first compound 2.53 µM): 0.798
- relative viability ([7]; first compound 0.08 µM): 0.801
- relative viability ([7]; first compound 0.253 µM): 0.641
- relative viability ([7]; first compound 0.8 µM): 0.775
- relative viability ([7]; first compound 2.53 µM): 0.72
- relative viability ([8]; first compound 0.08 µM): 0.763
- relative viability ([8]; first compound 0.253 µM): 0.565
- relative viability ([8]; first compound 0.8 µM): 0.642
- relative viability ([8]; first compound 2.53 µM): 0.585
- relative viability ([9]; first compound 0.08 µM): 1.22
- relative viability ([9]; first compound 0.253 µM): 0.715
- relative viability ([9]; first compound 0.8 µM): 1.03
- relative viability ([9]; first compound 2.53 µM): 0.924
- relative viability ([10]; first compound 0.08 µM): 0.262
- relative viability ([10]; first compound 0.8 µM): 0.246
- relative viability ([10]; first compound 2.53 µM): 0.233
- relative viability ([11]; first compound 0.08 µM): 1.17
- relative viability ([11]; first compound 0.253 µM): 0.989
- relative viability ([11]; first compound 0.8 µM): 1.29
- relative viability ([11]; first compound 2.53 µM): 0.988
- relative viability ([12]; first compound 0.08 µM): 0.203
- relative viability ([12]; first compound 0.8 µM): 0.214
- relative viability ([12]; first compound 2.53 µM): 0.177
- relative viability ([13]; first compound 0.08 µM): 0.876
- relative viability ([13]; first compound 0.253 µM): 0.669
- relative viability ([13]; first compound 0.8 µM): 0.621
- relative viability ([13]; first compound 2.53 µM): 0.828
- relative viability ([14]; first compound 0.08 µM): 0.401
- relative viability ([14]; first compound 0.253 µM): 0.375
- relative viability ([14]; first compound 0.8 µM): 0.426
- relative viability ([14]; first compound 2.53 µM): 0.426
- relative viability ([15]; first compound 0.08 µM): 0.891
- relative viability ([15]; first compound 0.253 µM): 0.761
- relative viability ([15]; first compound 0.8 µM): 0.844
- relative viability ([15]; first compound 2.53 µM): 0.824
- relative viability ([16]; first compound 0.08 µM): 0.606
- relative viability ([16]; first compound 0.253 µM): 0.537
- relative viability ([16]; first compound 0.8 µM): 0.68
- relative viability ([16]; first compound 2.53 µM): 0.681
- relative viability ([17]; first compound 0.08 µM): 1.13
- relative viability ([17]; first compound 0.253 µM): 1.02
- relative viability ([17]; first compound 0.8 µM): 1.01
- relative viability ([17]; first compound 2.53 µM): 1.04
- relative viability ([18]; first compound 0.08 µM): 0.548
- relative viability ([18]; first compound 0.253 µM): 0.54
- relative viability ([18]; first compound 0.8 µM): 0.676
- relative viability ([18]; first compound 2.53 µM): 0.619
- relative viability ([19]; first compound 0.08 µM): 0.659
- relative viability ([19]; first compound 0.253 µM): 0.47
- relative viability ([19]; first compound 0.8 µM): 0.365
- relative viability ([19]; first compound 2.53 µM): 0.469
- relative viability ([20]; first compound 0.08 µM): 0.577
- relative viability ([20]; first compound 0.253 µM): 0.499
- relative viability ([20]; first compound 0.8 µM): 0.591
- relative viability ([20]; first compound 2.53 µM): 0.685
- relative viability ([21]; first compound 0.08 µM): 0.799
- relative viability ([21]; first compound 0.253 µM): 0.84
- relative viability ([21]; first compound 0.8 µM): 0.843
- relative viability ([21]; first compound 2.53 µM): 0.856
- relative viability ([22]; first compound 0.08 µM): 0.877
- relative viability ([22]; first compound 0.253 µM): 0.704
- relative viability ([22]; first compound 0.8 µM): 0.782
- relative viability ([22]; first compound 2.53 µM): 0.91
- relative viability ([23]; first compound 0.08 µM): 0.397
- relative viability ([23]; first compound 0.253 µM): 0.308
- relative viability ([23]; first compound 0.8 µM): 0.292
- relative viability ([23]; first compound 2.53 µM): 0.326
